Test system: soya variety NIDERA AX 4910
Assay: Field experiments: yield of glyphosate-resistant soya after foliar treatment
Assay type: in vivo
Protocol: The results shown hereinbelow were obtained in experiments in the, open which were carried out during the […] season in the Argentinian northern pampas. The plots used were arranged randomly relative to one another. Each treatment variant was replicated-four times. The crop plant used was the soya variety NIDERA AX 4910, which is resistant to numerous fungal diseases and to the herbicide glyphosate.
In all 5 experiments, two foliar treatments with glyphosate were carried out 30 or 60 days after planting the soya seeds, using equipment conventionally used under practice conditions. In the experiments 2 and 3, pyraclostrobin was added at “30 days after planting”, while pyraclostrobin was added at “60 days after planting” in the experiments 4 and 5.

| Compound | yield in comparison with the conventional use of glyphosate alone (addition of pyraclostrobin 50 or 100 g a.s./ha to glyphosate at early (30 days) and late (60 days) treatment times) | Yield (experiment 1: glyphosate 360 g a.s./ha at 30 and at 60 days after planting, no pyraclostrobin, open field, 4 replicates) [%] |
| --- | --- | --- |
| pyraclostrobin | markedly increased the yield | – |
| O=C(O)CNCP(=O)(O)O [glyphosate, N-(phosphonomethyl)glycine] | – | 100 |

Reference: patent US7838464B2, “Method for yield improvement in glyphosate-resistent legumes” (priority 2002, dated 2010)
